Measured values from PubChem BioAssay (NCI).
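Each compound was tested at five concentrations against cells in 96-well plates for 48 hours. TGI marks complete inhibition of growth.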

How the values were obtained:
Test in all cases: growth of human tumour cells (NCI), 48 h
[1] = tested on: A498 renal
[2] = tested on: NCI/ADR-RES ovarian
[3] = tested on: HT29 colon
[4] = tested on: SF-295 CNS
[5] = tested on: KM12 colon
[6] = tested on: BT-549 breast
[7] = tested on: HCC-2998 colon
[8] = tested on: DU-145 prostate
[9] = tested on: HS 578T breast
[10] = tested on: SR leukemia
[11] = tested on: HOP-62 NSCLC
[12] = tested on: MCF7 breast
[13] = tested on: NCI-H522 lung
[14] = tested on: HL-60(TB) leukemia
[15] = tested on: NCI-H460 lung
[16] = tested on: 786-0 renal
[17] = tested on: ACHN renal
[18] = tested on: SW-620 colon
[19] = tested on: IGROV1 ovarian
[20] = tested on: UACC-62 melanoma
[21] = tested on: A549 NSCLC
[22] = tested on: MDA-MB-435
[23] = tested on: K-562 leukemia
[24] = tested on: SF-268 CNS
[25] = tested on: UACC-257 melanoma
[26] = tested on: MDA-N
[27] = tested on: CCRF-CEM leukemia
[28] = tested on: RPMI-8226 leukemia
[29] = tested on: COLO 205 colon
[30] = tested on: SNB-19 CNS
[31] = tested on: PC-3 prostate
[32] = tested on: UO-31 renal
[33] = tested on: OVCAR-8 ovarian
[34] = tested on: SK-OV-3 ovarian
[35] = tested on: NCI-H23 lung
[36] = tested on: EKVX NSCLC
[37] = tested on: SF-539 CNS
[38] = tested on: LOX IMVI melanoma
[39] = tested on: SK-MEL-5 melanoma
[40] = tested on: SK-MEL-2 melanoma
[41] = tested on: T-47D breast
[42] = tested on: HCT-116 colon
[43] = tested on: MOLT-4 leukemia
[44] = tested on: SK-MEL-28 melanoma
[45] = tested on: M14 melanoma
[46] = tested on: OVCAR-4 ovarian
[47] = tested on: U251 CNS
[48] = tested on: OVCAR-3 ovarian
[49] = tested on: OVCAR-5 ovarian
[50] = tested on: CAKI-1 renal
[51] = tested on: HCT-15 colon
[52] = tested on: SN12C renal
[53] = tested on: RXF 393 renal
[54] = tested on: TK-10 renal
[55] = tested on: MALME-3M melanoma
[56] = tested on: MDA-MB-231 breast
[57] = tested on: SNB-75 CNS

SMILES: CCN(CC)Cc1ccc(C(=S)Nc2ccc(Cl)cc2)s1
- TGI [1]: 25.8 µM
- TGI [2]: 25 µM
- TGI [3]: 12 µM
- TGI [4]: 25.2 µM
- TGI [5]: 26.6 µM
- TGI [6]: 19.7 µM
- TGI [7]: 26 µM
- TGI [8]: 29.7 µM
- TGI [9]: 32.5 µM
- TGI [10]: 24.7 µM
- TGI [11]: 32.1 µM
- TGI [12]: 25.5 µM
- TGI [13]: 25 µM
- TGI [14]: 10.5 µM
- TGI [15]: 27.9 µM
- TGI [16]: 26.4 µM
- TGI [17]: 28.3 µM
- TGI [18]: 36.8 µM
- TGI [19]: 24.1 µM
- TGI [20]: 23 µM
- TGI [21]: 25.4 µM
- TGI [22]: 22.7 µM
- TGI [23]: 18.9 µM
- TGI [24]: 30 µM
- TGI [25]: 18.1 µM
- TGI [26]: 23.6 µM
- TGI [27]: 34.1 µM
- TGI [28]: 39.6 µM
- TGI [29]: 5.2 µM
- TGI [30]: 31.6 µM
- TGI [31]: 28.6 µM
- TGI [32]: 23.5 µM
- TGI [33]: 18.2 µM
- TGI [34]: 29.7 µM
- TGI [35]: 9.34 µM
- TGI [36]: 19.4 µM
- TGI [37]: 31.6 µM
- TGI [38]: 16.2 µM
- TGI [39]: 16.9 µM
- TGI [40]: 32.1 µM
- TGI [41]: 34.2 µM
- TGI [42]: 22.9 µM
- TGI [43]: 34.4 µM
- TGI [44]: 20.8 µM
- TGI [45]: 14.2 µM
- TGI [46]: 34.6 µM
- TGI [47]: 26.2 µM
- TGI [48]: 37.7 µM
- TGI [49]: 23.7 µM
- TGI [50]: 26.2 µM
- TGI [51]: 23 µM

SMILES: COC(=O)C1c2cc3c(cc2C(OC2OC(C)C(OC)C(C)(OC)C2OC)CC1(C)O)C(=O)c1c(O)cc2c(c1C3=O)OC1OC2(C)C(O)C([N+](C)(C)[O-])C1O (stereo unspecified)
- TGI [1]: 3.7 µM
- TGI [2]: > 64.3 µM
- TGI [4]: > 42 µM
- TGI [6]: 9.14 µM
- TGI [8]: > 30.1 µM
- TGI [9]: 25.6 µM
- TGI [11]: > 100 µM
- TGI [12]: > 100 µM
- TGI [13]: 0.809 µM
- TGI [52]: 1.8 µM
- TGI [16]: > 40.5 µM
- TGI [17]: > 100 µM
- TGI [18]: > 23.8 µM
- TGI [53]: 0.977 µM
- TGI [19]: 4.22 µM
- TGI [20]: 0.311 µM
- TGI [54]: > 100 µM
- TGI [21]: > 75.8 µM
- TGI [24]: > 21.4 µM
- TGI [26]: 1.03 µM
- TGI [27]: 0.921 µM
- TGI [28]: > 100 µM
- TGI [29]: 0.293 µM
- TGI [55]: 1.25 µM
- TGI [30]: > 36.1 µM
- TGI [31]: > 40.7 µM
- TGI [32]: 5.7 µM
- TGI [33]: 4.22 µM
- TGI [56]: 4.74 µM
- TGI [34]: > 64.1 µM
- TGI [35]: 0.718 µM
- TGI [36]: 4.59 µM
- TGI [57]: 1.86 µM
- TGI [38]: 3.38 µM
- TGI [39]: 0.352 µM
- TGI [40]: 0.641 µM
- TGI [41]: 0.847 µM
- TGI [42]: > 100 µM
- TGI [43]: 4.97 µM
- TGI [45]: 3.64 µM
- TGI [46]: > 100 µM
- TGI [48]: > 32.3 µM
- TGI [49]: > 43.6 µM
- TGI [50]: > 28.3 µM
- TGI [51]: > 100 µM
